# Structures can show the parent of a compound that is named as a salt.
# Assays:
# [1] = molecular target: T1, serotonin S2 (5-HT2) receptors in rat cortex (Rattus norvegicus, UniProt P14842); experiment: Inhibition of ^3H-ketanserin binding to serotonin S2 (5-HT2) receptors in rat cortex in vitro; conditions: 0.5 nM ^3H-ketanserin, rat cortex membranes, 37° C., 30 min
# T1 construct: Serotonin S2 (5-HT2) receptors in membranes from rat; from tissue; host or cells: cerebral cortex membranes of male Wistar rats (printed 'conical tissue', a misprint for cortical)
# Description: Method in Hyttel, Pharmacology & Toxicology, 61, 126-129, 1987.
# Male Wistar (Mol:Wist) rats (125-250 g) are sacrificed and conical tissue is dissected and weighed. The tissue is homogenized (Ultra Turrax, 10 sec.) in 10 ml of ice-cold 50 mM tris buffer pH 7.7 (at 25° C.). The centrifuge glassware used in this step has been rinsed by sonication for 10 min. in ethanol. The homogenate is centrifuged twice at 20,000 g for 10 min. at 4° C. with rehomogenization of the pellet in 10 ml ice-cold buffer. The final pellet is homogenized in 500 vol (w/v)ice-cold buffer.
# Incubation tubes kept on ice in triplicate receive 100 μl Of drug solution in water (or water for total binding) and 2000 μl of tissue suspension (final tissue content corresponds to 4 mg original tissue). […] After incubation for 30 min. the samples are filtered under vacuum (0-50 mBar) through Whatman GF/F filters (25 mm). The tubes are rinsed with 5 ml ice-cold buffer which are then poured on the filters. Thereafter, the filters are washed with 2×5 ml of buffer. The filters are placed in counting vials and 4 ml of appropriate scintillation fluid (e.g. Picofluor ™15) are added. After shaking for 1 h and storage 2 hrs in the dark the content of radioactivity is determined by liquid scintillation counting. Specific binding is obtained by subtracting the nonspecific binding in the presence of 1 μM mianserin. For determination of the inhibition of binding five concentrations of drugs covering 3 decades are used.
# The IC50 value is determined as the concentration at which the binding is 50% of the total binding in control samples minus the nonspecific binding in the presence of 1 μM mianserin.
# [2] = molecular target: dopamine D-2 receptors in rat corpus striatum (Rattus norvegicus, UniProt P61169); experiment: Inhibition of ^3H-spiperone (spiroperidol) binding to dopamine D-2 receptors in rat corpus striatum in vitro; conditions: 0.5 nM ^3H-spiperone, rat striatum membranes, 37° C., 10 min
# Description: By this method the inhibition by drugs of the binding of ^3 H-spiperone (=^3 H-spiroperidol) (0.5 nM) to dopamine D-2 receptors in membranes from rat corpus striatum is determined in vitro. Method and results in Hyttel & Larsen, J. Neurochem, 44, 1615-1622, 1985).
# Male Wistar (Mol:Wistar) rats (125-250 g) are sacrificed and striatal tissue is dissected and weighed. The tissue is homogenized (Ultra Turrax, 10 sec.) in 10 ml of ice-cold 50 mM K-phosphate buffer pH 7.4 (at 25° C.). The homogenate is centrifuged twice at 20,000 g for 10 min. at 4° C. with rehomogenization of the pellet in 10 ml ice-cold buffer. The final pellet is homogenized in 1300 vol (w/v) ice-cold buffer.
# Incubation tubes kept on ice in triplicate receive 100 μl of drug solution in water (or water for total binding) and 4000 μl Of tissue suspension (final tissue content corresponds to 3.08 mg original tissue). The binding experimental is initiated by addition of 100 μl of ^3 H-spiperone (final concentration 0.5 nM) and by placing the tubes in a 37° C. water bath. After incubation for 10 min. the samples are filtered under vacuum (0-50 mBar) through Whatman GF/F filters (25 mm). The tubes are rinsed with 5 ml ice-cold buffer which are then poured on the filters. Thereafter, the filters are washed with 2×5 ml of buffer. The filters are placed in counting vials and 4 ml of appropriate scintillation fluid (e.g. Picofluor ™15) are added. After shaking for 1 h and storage 2 hrs in the dark the content of radioactivity is determined by liquid scintillation counting. Specific binding is obtained by subtracting the nonspecific binding in the presence of 10 μM of 6,7-ADTN.
# For determination of the inhibition of binding five concentrations of drugs covering 3 decades are used.
# The measured cpm are plotted against drug concentration on semilogarithmic paper and the best fitting S-shaped curve is drawn. […] England, specific activity 15-25 Ci/mmol.
# [3] = literature (Ceulemans et al. 1985); cited from earlier work
# [4] = literature (Klieser, Strauss 1988); cited from earlier work
# [5] = literature (Colpart et al. 1985); cited from earlier work
# [6] = literature (Janssen 1988); cited from earlier work
# [7] = literature (Bersani et al. 1990); cited from earlier work
# T1 sequence (P14842 whole entry): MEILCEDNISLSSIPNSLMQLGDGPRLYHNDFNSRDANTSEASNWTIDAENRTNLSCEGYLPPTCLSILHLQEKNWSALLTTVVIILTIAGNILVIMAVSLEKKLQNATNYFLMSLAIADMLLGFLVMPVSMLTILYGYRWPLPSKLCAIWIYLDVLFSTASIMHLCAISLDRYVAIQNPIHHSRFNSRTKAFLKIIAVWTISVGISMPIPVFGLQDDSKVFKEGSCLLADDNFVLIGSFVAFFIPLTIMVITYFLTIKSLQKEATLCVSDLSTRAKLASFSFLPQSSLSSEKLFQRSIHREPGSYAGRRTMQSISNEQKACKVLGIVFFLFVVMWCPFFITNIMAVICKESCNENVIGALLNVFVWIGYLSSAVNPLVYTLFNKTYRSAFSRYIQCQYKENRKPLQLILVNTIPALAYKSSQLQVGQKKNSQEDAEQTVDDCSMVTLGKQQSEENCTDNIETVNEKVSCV
# Chain of dopamine D-2 receptors in rat corpus striatum (P61169 whole entry): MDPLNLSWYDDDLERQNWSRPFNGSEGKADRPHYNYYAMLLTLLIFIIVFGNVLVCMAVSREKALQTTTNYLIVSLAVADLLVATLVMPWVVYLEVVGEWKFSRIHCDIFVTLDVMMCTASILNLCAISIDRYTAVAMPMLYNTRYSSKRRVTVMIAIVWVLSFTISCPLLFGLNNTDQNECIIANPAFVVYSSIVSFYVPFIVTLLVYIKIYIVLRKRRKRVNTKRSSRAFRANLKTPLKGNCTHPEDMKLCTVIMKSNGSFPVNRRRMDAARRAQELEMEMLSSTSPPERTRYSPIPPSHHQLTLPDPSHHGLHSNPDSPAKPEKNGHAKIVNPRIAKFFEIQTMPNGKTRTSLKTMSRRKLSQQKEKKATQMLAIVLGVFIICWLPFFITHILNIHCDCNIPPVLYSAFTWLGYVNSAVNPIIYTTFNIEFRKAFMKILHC
compound,measurement,setting,value
"O=C1NCCN1CCN1CCC(n2cc(-c3ccc(F)cc3)c3cc(F)ccc32)CC1 [Compound 4m, 5-Fluoro-3-(4-fluorophenyl)-1-[1-[2-(imidazolidin-2-on-1-yl)ethyl]-4-piperidyl]-1H-indole]",IC50,[1],3.2 nM
same,IC50,[2],250 nM
"Cc1c(-c2ccccc2)c2ccccc2n1C1CCN(CCN2CCNC2=O)CC1 [Compound 7c, 1-[1-[2-(Imidazolidin-2-on-1-yl)ethyl]-4-piperidyl]-2-methyl-3-phenyl-1H-indole]",IC50,[1],7.8 nM
same,IC50,[2],5300 nM
"O=C1NCCN1CCN1CCC(n2cc(-c3ccc(F)cc3)c3cc(Cl)ccc32)CC1 [Compound 4d, 5-Chloro-3-(4-fluorophenyl)-1-[1-[2-(imidazolidin-2-on-1-yl)ethyl]-4-piperidyl]-1H-indole]",IC50,[1],5.7 nM
same,IC50,[2],410 nM
"Cc1ccc2c(c1)c(-c1ccc(F)cc1)cn2C1CCN(CCO)CC1 [Compound 16a, 3-(4-Fluorophenyl)-1-[1-(2-hydroxyethyl)-4-piperidyl]-5-methyl-1H-indole, oxalate]",IC50,[1],22 nM
same,IC50,[2],1500 nM
"O=C1NCCN1CCN1CCC(n2nc(-c3ccc(F)cc3)c3ccc(Cl)cc32)CC1 [Compound 4t, 6-Chloro-3-(4-fluorophenyl)-1-[1-[2-(imidazolidin-2-on-1-yl)ethyl]-4-piperidyl]-1H-indazole]",IC50,[1],38 nM
same,IC50,[2],1900 nM
Cc1nc2n(c(=O)c1CCN1CCC(C(=O)c3ccc(F)cc3)CC1)CCS2 [setoperone],improvement of negative symptoms of schizophrenia (in words),[3],blockade of 5-HT2 receptors may be related to improvement of negative symptoms of schizophrenia
"O=C1NCCN1CCN1CCC(n2cc(-c3ccccc3)c3cc(Cl)ccc32)CC1 [Compound 4p, 5-Chloro-3-phenyl-1-[1-[2-(imidazolidin-2-on-1-yl)ethyl]-4-piperidyl]-1H-indole]",IC50,[1],29 nM
same,IC50,[2],2800 nM
"O=C1NCCN1CCN1CCC(n2c(Br)c(-c3ccc(F)cc3)c3ccccc32)CC1 [Compound 4x, 2-Bromo-3-(4-fluorophenyl)-1-[1-[2-(imidazolidin-2-on-1-yl)ethyl]-4-piperidyl]-1H-indole]",IC50,[1],11 nM
same,IC50,[2],650 nM
"Cc1c(-c2ccccc2)c2cc(Cl)ccc2n1C1=CCN(C)CC1 [Compound 6e, 5-Chloro-2-methyl-1-(1-methyl-1,2,3,6-tetrahydropyridin-4-yl)-3-phenyl-1H-indole, oxalate]",IC50,[1],9.4 nM
same,IC50,[2],1000 nM
"Cc1ccc2c(c1)c(-c1ccc(F)cc1)c(C)n2C1=CCN(C)CC1 [Compound 6b, 2,5-Dimethyl-3-(4-fluorophenyl)-1-(1-methyl-1,2,3,6-tetrahydropyridin-4-yl)-1H-indole]",IC50,[1],3.8 nM
same,IC50,[2],710 nM
"O=C1OCCN1CCN1CCC(n2cc(-c3ccc(F)cc3)c3cc(F)ccc32)CC1 [Compound 4o, 5-Fluoro-3-(4-fluorophenyl)-1-[1-[2-(oxazolidin-2-on-3-yl)ethyl]-4-piperidyl]-1H-indole]",IC50,[1],37 nM
same,IC50,[2],790 nM
Cc1nc2sccn2c(=O)c1CCN1CCC(=C(c2ccc(F)cc2)c2ccc(F)cc2)CC1 [Ritanserin],antidepressant effect and depressive symptoms of schizophrenia (in words),[4],shown to be an antidepressant and to improve depressive symptoms of schizophrenia
same,anxiolytic-like effect (in words),[5],exert effects in an animal test reminiscent of anxiolytic drug activity
same,quality of sleep (in words),[6],shown to improve the quality of sleep
same,relief of neuroleptic-induced parkinsonism (in words),[7],found to relieve neuroleptic-induced parkinsonism
"CNC(=O)N(C)CCN1CCC(n2cc(-c3ccc(F)cc3)c3cc(C)ccc32)CC1 [Compound 15a, 1-[1-[2-(1,3-Dimethyl-1-ureido)ethyl]-4-piperidyl]-3-(4-fluorophenyl)-5-methyl-1H-indole, hydrochloride]",IC50,[1],1.8 nM
same,IC50,[2],> 1000 nM
"Cc1ccc2c(c1)c(-c1ccc(F)cc1)c(C)n2C1CCN(C)CC1 [Compound 9a, 2,5-Dimethyl-3-(4-fluorophenyl)-1-(1-methyl-4-piperidyl)-1H-indole]",IC50,[1],5.3 nM
same,IC50,[2],2600 nM
"CC(C)N1CCN(CCN2CCC(n3cc(-c4ccc(F)cc4)c4ccc(Cl)cc43)CC2)C1=O [Compound 4c, 6-Chloro-3-(4-fluorophenyl)-1-[1-[2-[3-(2-propyl)imidazolidin-2-on-1-yl]ethyl]-4-piperidyl]-1H-indole, hydrochloride, hydrate]",IC50,[1],3.7 nM
same,IC50,[2],42 nM
"Cc1ccc2c(c1)c(-c1ccc(F)cc1)c(C)n2C1=CCN(CCN2CCNC2=O)CC1 [Compound 6a, 2,5-Dimethyl-3-(4-fluorophenyl)-1-[1-[2-(imidazolidin-2-on-1-yl)ethyl]-1,2,3,6-tetrahydropyridin-4-yl]-1H-indole]",IC50,[1],2.8 nM
same,IC50,[2],6300 nM
"Cc1ccc2c(c1)c(-c1ccc(F)cc1)cn2N1CCN(C)CC1 [Compound 20a, 3-(4-Fluorophenyl)-5-methyl-1-(1-methylpiperazin-4-yl)-1H-indole]",IC50,[1],13 nM
same,IC50,[2],3900 nM
"Cc1ccc2c(c1)c(-c1ccc(F)cc1)cn2C1CCN(CCN2CCN(C(C)C)C2=O)CC1 [Compound 4h, 3-(4-Fluorophenyl)-5-methyl-1-[1-[2-[3-(2-propyl)imidazolidin-2-on-1-yl]ethyl]-4-piperidyl)-1H-indole, oxalate]",IC50,[1],2.7 nM
same,IC50,[2],1100 nM
"Cc1ccc2c(c1)c(-c1ccc(F)cc1)cn2C1CCN(CCNC(=S)N(C)C)CC1 [Compound 13a, 1-[1-[2-(3,3-Dimethyl-1-thioureido)ethyl]-4-piperidyl]-3-(4-fluorophenyl)-5-methyl-1H-indole]",IC50,[1],3.7 nM
same,IC50,[2],250 nM
"O=C1NCCN1CCN1CCC(n2cc(-c3ccc(F)cc3)c3ccccc32)CC1 [Compound 4k, 3-(4-Fluorophenyl)-1-[1-[2-(imidazolidin-2-on-1-yl)ethyl]-4-piperidyl]-1H-indole]",IC50,[1],3.1 nM
same,IC50,[2],120 nM
